Series [1] concerns HeLa cells. The series is described as follows: in vitro. The conditions noted are these: non-toxic = viability not below 70% of vehicle control at 25 μM. Type of series: cell-based. As to the method: (§1) HeLa299 cells were inoculated into clear, flat 96-well plates (Nunc, Delta surface, Thermo Fischer Scientific) with a density of 7,000 cells per well and cultured overnight at 37°C with 5% CO2 in […] supplemented with 10% FBS and 2 mM L-glutamine. The following day, the RPMI was replaced with DMEM without phenol red (Life Technologies, Carlsbad, CA, USA) containing 0.5% DMSO with or without test compounds at 25 and 50 μM concentrations incubated at 37°C with 5% CO2 for 48 h. At least three replicate wells for each compound concentration were tested. Wells without cells were used as blank controls. Following this incubation with compounds, cells were washed with DMEM to remove remaining colored compounds and fresh DMEM without phenol red was added before the XTT Cell Proliferation Assay kit was used according to the manufacturer's instructions (ATCC, Manassas, VA, USA). Briefly, activation reagent and XTT reagent were thawed at 37°C, then mixed in a 1:50 ratio with enough volume to add 50 μL to each well. The plates were placed in the 37°C incubator for 2.5 h. The absorbance of each well was then read at 475 nm and 660 nm with a Tecan Infinite m200 plate reader (Tecan, Männedorf, Switzerland). To analyze the data, the 660 nm reading was subtracted from the 475 nm reading to help eliminate non-specific readings from the assay results. Average blank control-well readings were subtracted from those containing cells. Final readings from wells containing compound were compared to DMSO control wells and expressed as percent of control.

Series [2] is described as follows: in vitro. Type of series: cell-based. The conditions noted are these: human, 48 h, percent of DMSO control; for viability at 25 µM: read-out: HeLa cell viability at 25 μM (%); for viability at 50 µM: read-out: HeLa cell viability at 50 μM (%) (converted). As to the method: as §1
For series [3], the system named is mCherry expressing C. trachomatis serovar L2 454/Bu. The series can be described thus: Primary screen of natural compound library, Chlamydia inclusion count (mCherry imaging and FITC immunostaining in duplicate plates). It is filed as cell-based, Chlamydia trachomatis. The conditions noted are these: Chlamydia trachomatis, 10 μM, 48 hpi, HeLa cells, vs DMSO control. As to the method:
A general and more detailed protocol for the screening assay is provided in (Supplementary Data Sheet 1) and an overview of the screening method is given in Figure 3. Since inhalation of C. trachomatis aerosols can cause laboratory acquired infections (Sewell, [1995]), all procedures involving handling of live infection in open plates were performed manually inside a class II safety cabinet using 8-channel electronic pipets (Rainin E4 XLS, Mettler Toledo, Barcelona, Spain) and an enclosed aspiration system (Intergra VacuSafe, Zizers, Switzerland).
The primary screen of the 349 open access compound library was performed using the mCherry expressing C. trachomatis serovar L2 454/Bu in clear, flat 96-well plates (Nunc, Delta surface, Thermo Fischer Scientific). The primary screen was done in duplicates in separated plates; one plate was used for mCherry imaging and the other for FITC immunostaining. Cells were seeded at a density of 10,000 cells per well in 100 μl DMEM media 1 day prior to infection in culture media. Chlamydia infection was performed in 30 μl HBSS as described above with a MOI of 0.6 during 1 h at 37°C, 5% CO2. Compounds were diluted to 10 μM in DMEM with a final DMSO concentration of 0.5% and 100 μl per well was added after aspiration of HBSS. The plates were incubated for an additional 47 h at 37°C, 5% CO2 prior to imaging. One of the duplicate plates was used for mCherry imaging and one for FITC immunostaining. For mCherry imaging, HeLa cell nuclei were first stained by addition of 10 μl […] Hoechst per well and incubated at 37°C with 5% CO2 for 20 min. The infected cells were fixed in 4% paraformaldehyde (PFA) for 15 min and washed in PBS before image acquisition. Although fixation was not necessary for the analysis, it inactivated the infectious Chlamydia and enabled later analysis after storage at 4°C. For FITC immunostaining, cells were fixed in 150 μl methanol per well for 10 min, blocked in 1% BSA, 0.25% Tween-20 in PBS and incubated with 1:1,000 polyclonal rabbit anti-chlamydial serum in blocking buffer (Marwaha et al., [2014]). A FITC-conjugated donkey anti-rabbit antibody (Jackson ImmunoResearch) and 1 μg/ml Hoechst staining was used for staining followed by washing with blocking buffer. Images of nuclei (Hoechst-ex386/23 nm) and Chlamydia inclusions (FITC: ex485/20 nm; mCherry: ex549/15 nm) were acquired in the ArrayScan with the 10x objective and counted with the built in software. Chlamydia inclusions in DMSO control wells were used to determine an inclusion size cutoff to exclude small underdeveloped inclusions as well as fluorescent artifacts from the analyses.

The test system of series [4] is mCherry expressing C. trachomatis. The series is described as follows: EC50 determination, large inclusion count in infected HeLa cells, FITC immunostaining. It is filed as cell-based. The conditions noted are these: Chlamydia trachomatis, read-out: EC50 (95% confidence values). As to the method: (§2) HeLa cells were inoculated into 96-well plates (Nunc, Corning, New York, USA) with a density of 15,000 cells per well and cultured overnight at 37°C with 5% CO2 in RPMI 1640, supplemented with 10% FBS and 2 mM L-glutamine, and infected the following day with wt or mCherry C. trachomatis in HBSS. At 1 hpi, the inoculum was replaced with RPMI media containing 0.5% DMSO and serial 1:2 dilutions of the tested compounds. The infection was allowed to proceed for 44–48 h before fixation by aspiration of the media and adding methanol for 5 min. Chlamydia inclusions were immunostained as described above. The numbers of large inclusions were counted by the ArrayScan VTI HCS automated scanner. Inhibition of Chlamydia growth was evaluated as the number of inclusions in compound treated infections (evaluated in 12 fields per well, 20x objective) compared to the numbers of inclusions in DMSO treated control infections (% of control). EC50 values are representative of at least three independent experiments. The data analysis was performed using non-linear regression (curve fit) in GraphPad Prism v.5.

Series [5] relates to wt C. trachomatis. The description is as above. It is filed as cell-based, Chlamydia trachomatis. The conditions noted are these: wt strain, 44-48 h; for EC50: Chlamydia trachomatis, read-out: EC50 (95% confidence values). As to the method:
as §2

The conditions of series [6]: ref Davis et al., 2013; cited from earlier work.
The subject of series [7] is mCherry transformed C. trachomatis. The series is described as follows: Live real time imaging of C. trachomatis infection (time-lapse 24-72 hpi). Type of series: cell-based, Chlamydia trachomatis. The conditions noted are these: HeLa cells. As to the method: The anti-chlamydial effect over time of compound 6 (identified in the above screen) was visualized by a time-lapse experiment. HeLa cells were seeded at a concentration of 10,000 cells per well 1 day prior to infection. Chlamydia infection was performed as described above at MOI 0.6 with mCherry transformed C. trachomatis. Phenol red free DMEM culture media containing 6 or 3 μM 6 or 0.5% DMSO was added at 100 μl per well 1 hpi. Images were acquired with 1 h intervals with the 10x objective acquiring 4 fields per well during 48 h. The red channel was used for autofocusing and therefore imaging was initialized 24 hpi when the mCherry expressing inclusions were detectable, continuing to 72 hpi.

Series [8] relates to mammalian cells. The conditions noted are these: ref Davis et al., 2013; cited from earlier work.
Setting [9] is: MOI 0.6, FITC immunostaining, read-out: Screen inhibition at 10 μM (%) FITC.
[10] abbreviates: MOI 0.6, mCherry detection, read-out: Screen inhibition at 10 μM (%) mCherry.

“Also recorded” adds a separate entry of the source. Read-outs that look alike come from different tables or passages of the source.

On to `CCCCNC(=O)NCCc1c[nH]c2c1C(=O)C1=C(NC=CS1(=O)=O)C2=O` [Compound 9], for which the “Toxicity to HeLa cells (authors' call)” value in series [1] is “toxic”. In addition, in series [2], the viability at 25 µM turned out to be 37 ± 6.5%. In series [2], the viability at 50 µM was 11.5%. The inhibition at 10 µM in series [3] (setting [9]) and in series [3] (setting [10]) was 100% in each case.

With `COCCNC1=CC(=O)c2c(O)c3c(c(O)c2C1=O)C[C@](C)(O)C[C@@H]3O` [Compound 1], the EC50 in series [4] worked out at 2.8 µM; in series [5] it was 5.3 µM. For the same compound, in series [1], the “Toxicity to HeLa cells (authors' call)” value was “non-toxic”. The viability at 50 µM in series [2] is 58.5%. The inhibition at 10 µM in series [3] (setting [9]) and in series [3] (setting [10]) was 100% in each case. Also, in series [5], the “EC50 (95% confidence values)” value is recorded as “low micromolar”.

Consider `C[C@]1(O)Cc2c(O)c3c(c(O)c2[C@@H](O)C1)C(=O)C=C(NCCc1ccccc1)C3=O` [Compound 2], for which the “Toxicity to HeLa cells (authors' call)” value in series [1] is reported as “non-toxic”. In series [2], the viability at 25 µM is at least 70% and the viability at 50 µM is 31%. Moreover, the inhibition at 10 µM in series [3] (setting [9]) was 100%. The inhibition at 10 µM in series [3] (setting [10]) amounted to 66%. The EC50 in series [5] was 23 µM.

Consider `CC(=O)NCCc1c[nH]c2c1C(=O)C1=C(NC=CS1(=O)=O)C2=O` [Compound 7], for which the “Toxicity to HeLa cells (authors' call)” value in series [1] was “toxic”. Also, in series [2], the viability at 25 µM was 17 ± 2% and the viability at 50 µM was 6%. For the same compound, the inhibition at 10 µM in series [3] (setting [9]) turned out to be 100%. For the same compound, the inhibition at 10 µM in series [3] (setting [10]) came out at 99%.

Consider `NCCc1c[nH]c2c1C(=O)C1=C(NCCS1(=O)=O)C2=O` [Compound 6], for which, in series [6], the “In vitro antimalarial effect, active concentrations” value is given as “low nanomolar concentrations”. Also, the “Growth of red fluorescent Chlamydia inclusions in live imaging” value in series [7] (3 μM, compared to DMSO control) is “grew at a slower pace; also recorded: continuous growth reduction”. For the same compound, the “Red fluorescent Chlamydia inclusions in live imaging” value in series [7] (6 μM) is reported as “not detectable”. Also, the EC50 in series [4] amounted to 1.7 µM; in series [5] it was 2.8 µM. The “Toxicity to HeLa cells (authors' call)” value in series [1] is “non-toxic”. Further, the viability at 25 µM in series [2] came out at 77 ± 0.2%. The viability at 50 µM in series [2] was 55%. The inhibition at 10 µM in series [3] (setting [9]) and in series [3] (setting [10]) was 100% in each case. Also, in series [8], the “Toxicity in mammalian cells” value is given as “non-toxic”.

For the compound `C[C@]1(O)Cc2c(O)c3c(c(O)c2[C@@H](O)C1)C(=O)C=C(NCCc1ccc(O)cc1)C3=O` [Compound 3], the “Toxicity to HeLa cells (authors' call)” value in series [1] is listed as “toxic”. Besides, in series [2], the viability at 25 µM amounted to 41 ± 2.5% and the viability at 50 µM is 24%. In addition, in series [3] (setting [9]), the inhibition at 10 µM was 100%.

Regarding `CC(C)(C)NC(=O)NCCc1c[nH]c2c1C(=O)C1=C(NC=CS1(=O)=O)C2=O` [Compound 8], the “Toxicity to HeLa cells (authors' call)” value in series [1] is “toxic”. In series [2], the viability at 25 µM came out at 30 ± 7% and the viability at 50 µM was 11%. The inhibition at 10 µM in series [3] (setting [9]) worked out at 100%. Moreover, in series [3] (setting [10]), the inhibition at 10 µM is 100%.

In the case of `C[C@]1(O)Cc2c(O)c3c(c(O)c2[C@@H](O)C1)C(=O)C=C(NCCN1CCOCC1)C3=O` [Compound 4], the “Toxicity to HeLa cells (authors' call)” value in series [1] is given as “non-toxic”. Moreover, the viability at 25 µM in series [2] is at least 70%. The viability at 50 µM in series [2] is 74%. The figures for the inhibition at 10 µM in series [3] (setting [9]) and in series [3] (setting [10]) were 100% and 98%, respectively. Besides, the 50% effective concentration (EC50) in series [5] amounted to 20.8 µM.

The values above are taken from publication PMC6305398, “Red Fluorescent Chlamydia trachomatis Applied to Live Cell Imaging and Screening for Antibacterial Agents” (Frontiers in Microbiology, 2018).
